Some test systems named below: HT29 colon; NCI-H522 lung; BT-549 breast; HCC-2998 colon; SK-MEL-28 melanoma; MCF7 breast; A498 renal; NCI-H23 lung; SK-OV-3 ovarian; NCI/ADR-RES ovarian; MDA-MB-435; SK-MEL-2 melanoma; MDA-MB-231 breast; MALME-3M melanoma; ACHN renal; HCT-15 colon; UACC-257 melanoma; MDA-MB-468 breast; SF-268 CNS; UO-31 renal; HOP-92 NSCLC; IGROV1 ovarian; SK-MEL-5 melanoma; MOLT-4 leukemia; SF-295 CNS; SNB-75 CNS; UACC-62 melanoma; HS 578T breast; OVCAR-5 ovarian; TK-10 renal; NCI-H460 lung; SNB-19 CNS; OVCAR-3 ovarian; K-562 leukemia; DU-145 prostate; HL-60(TB) leukemia; EKVX NSCLC; SW-620 colon; CCRF-CEM leukemia; SN12C renal; SF-539 CNS; LOX IMVI melanoma; RXF 393 renal; CAKI-1 renal; SR leukemia.

Holding throughout (experiment): NCI anticancer screen, dose series, 48 h

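Briefly, cells in 96-well plates were exposed to five compound concentrations for 48 h, and endpoints were estimated by linear interpolation. At the GI50, growth is halved. TGI is the concentration that stops growth completely.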

On to `CC(=O)Nc1ccc(-c2cn(-c3cccc(C(=O)Nc4cc(CN5CCOCC5)cc(C(F)(F)F)c4)c3)nn2)cn1`, for which the GI50 with HT29 colon was 2000 nM; in the assay with NCI-H522 lung, 2040 nM; in the assay on BT-549 breast it was 2590 nM; in the assay with HCC-2998 colon, 1940 nM; with SK-MEL-28 melanoma, 1280 nM; in the assay on MCF7 breast it was 1720 nM. Also, the GI50 in the assay on A498 renal is 2410 nM; with NCI-H23 lung, 1630 nM; in the assay on SK-OV-3 ovarian it was 2130 nM; in the assay on NCI/ADR-RES ovarian it was 9400 nM; in the assay on MDA-MB-435 it was 1580 nM; with SK-MEL-2 melanoma, 2130 nM. Besides, the GI50 in the assay on MDA-MB-231 breast was 1230 nM; with MALME-3M melanoma it was 477 nM; in the assay on ACHN renal it was 1770 nM; in the assay with HCT-15 colon, 2030 nM; with UACC-257 melanoma, 1630 nM; in the assay with MDA-MB-468 breast it was 1650 nM. The GI50 was 2580 nM with SF-268 CNS; 1920 nM with UO-31 renal; 1950 nM in the assay on HOP-92 NSCLC; 2190 nM with IGROV1 ovarian; 1570 nM in the assay with SK-MEL-5 melanoma; 3120 nM in the assay with MOLT-4 leukemia. Moreover, the GI50 in the assay with SF-295 CNS was 1590 nM; in the assay on SNB-75 CNS, 1780 nM; with UACC-62 melanoma, 1290 nM; in the assay with HS 578T breast, 1900 nM; in the assay with OVCAR-5 ovarian, 1880 nM; with TK-10 renal, 433 nM. The GI50 with NCI-H460 lung was 2340 nM; in the assay with SNB-19 CNS it was 2230 nM; in the assay with OVCAR-3 ovarian it was 2230 nM; in the assay with K-562 leukemia, 178 nM; with DU-145 prostate it was 2400 nM; with HL-60(TB) leukemia, 1330 nM. Further, the GI50 was 2440 nM with EKVX NSCLC; 1940 nM with SW-620 colon; 3340 nM with CCRF-CEM leukemia; 1650 nM in the assay with SN12C renal; 1480 nM in the assay on SF-539 CNS; 1420 nM in the assay on LOX IMVI melanoma. For the same molecule, the values for the GI50 in the assay with RXF 393 renal, with CAKI-1 renal and with SR leukemia were 1870 nM, 1910 nM and > 100000 nM, respectively. In addition, the TGI came out at 5970 nM in the assay with HT29 colon; 4820 nM in the assay with NCI-H522 lung; 4440 nM in the assay on BT-549 breast; 3500 nM in the assay on HCC-2998 colon; 2570 nM with SK-MEL-28 melanoma; 3350 nM in the assay with MCF7 breast. In addition, the TGI in the assay on A498 renal was 4570 nM; in the assay with NCI-H23 lung, 3080 nM; in the assay with SK-OV-3 ovarian, 3930 nM; in the assay with NCI/ADR-RES ovarian, > 100000 nM; in the assay on MDA-MB-435 it was 3290 nM; in the assay on SK-MEL-2 melanoma it was 5440 nM. In addition, the TGI in the assay with MDA-MB-231 breast stood at 2590 nM; with MALME-3M melanoma, 1820 nM; in the assay with ACHN renal, 3260 nM; with HCT-15 colon it was 4110 nM; in the assay with UACC-257 melanoma, 3570 nM; in the assay on MDA-MB-468 breast it was 3100 nM. Further, the TGI was found to be 5580 nM in the assay with SF-268 CNS; 3800 nM with UO-31 renal; 4620 nM with HOP-92 NSCLC; 5120 nM in the assay on IGROV1 ovarian; 2930 nM in the assay on SK-MEL-5 melanoma; 16700 nM in the assay with MOLT-4 leukemia. Further, the TGI in the assay with SF-295 CNS stood at 2940 nM; in the assay on SNB-75 CNS it was 3280 nM; in the assay on UACC-62 melanoma, 2660 nM; in the assay on HS 578T breast, 5040 nM; in the assay with OVCAR-5 ovarian it was 4990 nM; in the assay on TK-10 renal, 1460 nM. Besides, the TGI in the assay on NCI-H460 lung was 5110 nM; with SNB-19 CNS it was 4360 nM; in the assay with OVCAR-3 ovarian, 3990 nM; in the assay with K-562 leukemia, > 100000 nM; in the assay with DU-145 prostate, 5110 nM; with HL-60(TB) leukemia, 5470 nM. Also, the TGI with EKVX NSCLC is 6130 nM; in the assay with SW-620 colon, 3830 nM; in the assay with CCRF-CEM leukemia, > 100000 nM; in the assay on SN12C renal, 3080 nM; with SF-539 CNS it was 2820 nM; with LOX IMVI melanoma it was 2800 nM. In addition, the TGI with RXF 393 renal is 3360 nM; in the assay on CAKI-1 renal it was 3480 nM; in the assay with SR leukemia, > 100000 nM.
Regarding `O=C(Nc1cccc(-n2ccc3c(NC(=O)c4ccccc4)ncnc32)c1)Nc1ccc(Cl)c(C(F)(F)F)c1`, in the assay on MDA-MB-468 breast, the GI50 is 1480 nM and the TGI is 6060 nM.
The corresponding values for `CC(=O)c1cc2c(N)c(C(=O)Nc3cccc4ccccc34)sc2nc1C` are 1640 nM and 31100 nM.
For the molecule `N[C@@H]1CCCN(c2c(Br)cnc3[nH]cc(NC(=O)C4CC4)c23)C1`, in the assay on MDA-MB-468 breast, the GI50 was 2110 nM and the TGI was 36200 nM.
The corresponding values for `CCCCNc1ncnc2c1cnn2-c1ccccc1` are 2240 nM and 7600 nM.
In the case of `[Br][Pb]([c]1ccccc1)([c]1ccccc1)[c]1ccccc1`, in the assay with MDA-MB-468 breast, the GI50 was 148 nM and the TGI came out at 294 nM.
The corresponding values for `CC[C@H](C)[C@H](NC(=O)[C@H]1CCCCN1C)C(=O)N(C)[C@H](CCc1nc(C(=O)N[C@@H](Cc2ccccc2)C[C@H](C)C(=O)O)cs1)C(C)C` are 85 nM and > 25000 nM.
For `Cc1ccc(S(=O)(=O)OC[C@@]2(C)CC[C@]3(C)CC[C@]4(C)C(=C3C2)C=C[C@@H]2[C@@]3(C)CCCNC(C)(C)[C@@H]3CC[C@]24C)cc1`, in that order: 1590 nM and 3220 nM.
The corresponding values for `O=C1C(Cl)=C(Nc2ccc(S(=O)(=O)c3ccc(NC4=C(Cl)C(=O)c5ccccc5C4=O)cc3)cc2)C(=O)c2ccccc21` are 1500 nM and 3090 nM.
For the molecule `CCCCCCCCCCCC1N=C(N)N=C(N)N1c1cccc(Br)c1` (stereo not given), in the assay on MDA-MB-468 breast, the GI50 is 528 nM and the TGI came out at 1980 nM.
For `Cn1c(=O)c(-c2ccccc2Cl)cc2cnc(NC3CCOCC3)nc21`, in that order: > 19900 nM and > 25000 nM.
Take `Cc1ccc(-c2nc(NCCOCCOCCN)nc(N3CCN(c4ccccn4)CC3)n2)cc1`: in the assay with MDA-MB-468 breast, the GI50 is 7040 nM and the TGI is 18000 nM.
For `CNC(=O)CCN1CCN(CC/C=C2\c3ccccc3Sc3ccc(Cl)cc32)CC1`, in that order: 3630 nM and 16900 nM.
The corresponding values for `COc1cc(N=Nc2cc(Cc3ccc(N(C)C)cc3)c(N)cc2N(C)C)c2ncccc2c1` are 226 nM and 622 nM.
The corresponding values for `NC(=NCCCCCCN=C(N)/N=C(\N)Nc1ccc(Cl)cc1)/N=C(\N)Nc1ccc(Cl)cc1` are 952 nM and 2280 nM.
As to `CN1CCCCC1CCN1c2ccccc2Sc2ccc(Br)cc21` (stereo not given), in the assay on MDA-MB-468 breast, the GI50 is 1780 nM and the TGI is 3650 nM.
